Measured values as given in patent publication US20240246968A1, “SMALL MOLECULE INHIBITORS OF KRAS G12C MUTANT” (Merck Sharp & Dohme LLC, priority 2021, published 2024).

Legend:
[1] = biological target: Gppcp-bound recombinant K-Ras4B G12C mutant protein (amino acids 1-169, C51S/C80L/C118S) (Homo sapiens, UniProt P01116, C118S/C51S/C80L/G12C); assay: KRASG12C binding assay (LC-MS, compound binding rate); conditions: test compound final concentration 0.5 μM, 25° C., 1 hour
Method in brief: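 Gppcp-bound K-Ras4B G12C (1-169; C51S/C80L/C118S), 50 nM in TBS with 0.1 mM TCEP, 0.25 mM MgCl2, 50 μM Gppcp, exposed to compound at 0.5 μM final for 1 h at 25 °C. Quenched with formic acid and analysed by intact-protein ESI LC-MS. Binding rate is the mono-adduct signal over total KRAS signal; graded A (≥80%) to E (<20%).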

[2] = biological target: T1, interaction between recombinant K-Ras4B G12C mutant protein and cRAF RAS-binding domain (cRAF-RBD) (Homo sapiens, UniProt P01116, G12C); assay: Inhibitory activity on interaction between KRAS G12C and cRAF (Alpha technology); format: biochemical; conditions: GMPPNP-bound KRAS G12C incubated with compound at 25° C. for 1 hour, then cRAF-RBD; Alpha signal
T1 construct: made in house; host or cells: E. coli
Method in brief: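 GMPPNP-loaded His-tagged KRAS G12C (aa 1-169, E. coli) preincubated with compound 1 h at 25° C in Tris pH 7.5, 100 mM NaCl, 1 mM MgCl2, TCEP, 0.1% Tween 20; cRAF-RBD (aa 50-132) added, 1.5 h RT, Alpha signal read. DMSO = 0%, GDP-bound KRAS = 100% inhibition; IC50 from dose titration fit.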

[3] = system: MIA PaCa-2 cells; assay: Growth inhibition activity on KRAS-G12C mutant cell line (MIA PaCa-2), CellTiter-Glo 3D; format: cell-based, human; conditions: MIA PaCa-2, 3-day culture with compound
Method in brief: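 Cells in RPMI1640 with 10% FBS were seeded in U-bottom plates and cultured 1 day at 37 °C, 5% CO2, then exposed to compound (0.2% DMSO final) for 3 more days. Viability read by CellTiter-Glo 3D luminescence; IC50 from growth inhibition relative to untreated wells.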

Compound | binding rate [1] | IC50 [2] | IC50 ([3]; Homo sapiens, MIA PaCa-2, 72 h) | IC50 [3]
CO[C@H]1CC[C@H](NC/C=C/C(=O)Nc2c(F)cc(C(=O)c3cc(C)c4c(-c5c(C)cc6c(nc(C)n6C)c5Cl)cccn34)cc2F)CC1 [Example 87, (E)-N-(4-(8-(4-chloro-1,2,6-trimethyl-1H-benzo[d]imidazol-5-yl)-1-methylindolizine-3-carbonyl)-2,6-difluorophenyl)-4-(((1r,4r)-4-methoxycyclohexyl)amino)but-2-enamide] | A (A binding rate of 80% or more is rated “A”) | 35 nM | 140 nM | –
Cc1nc2c(Cl)c(-c3cccn4c(C(=O)c5cc(F)c(NC(=O)/C=C/CNC(C)(C)C)c(F)c5)ccc34)c(C(F)(F)F)cc2n1C (single isomer, unassigned) [Example 56-2, (E)-4-(tert-butylamino)-N-(4-(8-(4-chloro-1,2-dimethyl-6-(trifluoromethyl)-1H-benzo[d]imidazol-5-yl)indolizine-3-carbonyl)-2,6-difluorophenyl)but-2-enamide] | A (A binding rate of 80% or more is rated “A”) | 21 nM | – | 29 nM
CO[C@H]1CC[C@H](NC/C=C/C(=O)Nc2c(F)cc(C(=O)c3ccc4c(-c5c(C(C)C)cc6c(nc(C)n6C)c5Cl)cccn34)cc2F)CC1 (single isomer, unassigned) [Example 71-1, (E)-N-(4-(8-(4-chloro-6-isopropyl-1,2-dimethyl-1H-benzo[d]imidazol-5-yl)indolizine-3-carbonyl)-2,6-difluorophenyl)-4-(((1r,4r)-4-methoxycyclohexyl)amino)but-2-enamide] | A (A binding rate of 80% or more is rated “A”) | 43 nM | – | 130 nM
COc1c(-c2cccn3c(C(=O)c4cc(F)c(NC(=O)/C=C/CNC5CCOCC5)c(F)c4)ccc23)c(C(F)(F)F)cc2c1nc(C)n2C (single isomer, unassigned) [Example 61-2, (E)-N-(2,6-difluoro-4-(8-(4-methoxy-1,2-dimethyl-6-(trifluoromethyl)-1H-benzo[d]imidazol-5-yl)indolizine-3-carbonyl)phenyl)-4-((tetrahydro-2H-pyran-4-yl)amino)but-2-enamide] | A (A binding rate of 80% or more is rated “A”) | 28 nM | – | 10 nM
CO[C@H]1CC[C@H](NC/C=C/C(=O)Nc2c(F)cc(C(=O)c3cc(-c4cnn(C)c4)c4c(-c5c(C)cc6c(nc(C)n6C)c5Cl)cccn34)cc2F)CC1 [Example 101, (E)-N-(4-(8-(4-chloro-1,2,6-trimethyl-1H-benzo[d]imidazol-5-yl)-1-(1-methyl-1H-pyrazol-4-yl)indolizine-3-carbonyl)-2,6-difluorophenyl)-4-(((1r,4r)-4-methoxycyclohexyl)amino)but-2-enamide] | A (A binding rate of 80% or more is rated “A”) | 54 nM | 93 nM | –
Cc1nc2cc(-c3cccn4c(C(=O)c5cc(F)c(NC(=O)/C=C/CNC67CCC(F)(CC6)C7)c(F)c5)ccc34)c(C(F)(F)F)cc2n1C [Example 84, (E)-N-(4-(8-(1,2-dimethyl-6-(trifluoromethyl)-1H-benzo[d]imidazol-5-yl)indolizine-3-carbonyl)-2,6-difluorophenyl)-4-((4-fluorobicyclo[2.2.1]heptan-1-yl)amino)but-2-enamide] | A (A binding rate of 80% or more is rated “A”) | 91 nM | 120 nM | –
COc1cc(N2CCCC2=O)cc(Cl)c1-c1cccn2c(C(=O)c3cc(F)c(NC(=O)/C=C/CN[C@H]4CC[C@H](OC)CC4)c(F)c3)ccc12 (single isomer, unassigned) [Example 30-2, (E)-N-(4-(8-(2-chloro-6-methoxy-4-(2-oxopyrrolidin-1-yl)phenyl)indolizine-3-carbonyl)-2,6-difluorophenyl)-4-(((1r,4r)-4-methoxycyclohexyl)amino)but-2-enamide] | A (A binding rate of 80% or more is rated “A”) | 61 nM | – | 120 nM
CC(C)(C)NC/C=C/C(=O)Nc1c(F)cc(C(=O)c2cnc3c(-c4cc5nc6n(c5cc4C(F)(F)F)CCC6)cccn23)cc1F [Example 7, (E)-4-(tert-butylamino)-N-(2,6-difluoro-4-(8-(7-(trifluoromethyl)-2,3-dihydro-1H-benzo[d]pyrrolo[1,2-a]imidazol-6-yl)imidazo[1,2-a]pyridine-3-carbonyl)phenyl)but-2-enamide] | B (a binding rate of 60% or more and less than 80% is rated “B”) | 69 nM | 160 nM | –
CO[C@H]1CC[C@H](NC/C=C/C(=O)Nc2c(F)cc(C(=O)c3ccc4c(-c5c(C(F)(F)F)cc6c(ncn6C)c5Cl)cccn34)cc2F)CC1 (single isomer, unassigned) [Example 28-1, (E)-N-(4-(8-(4-chloro-1-methyl-6-(trifluoromethyl)-1H-benzo[d]imidazol-5-yl)indolizine-3-carbonyl)-2,6-difluorophenyl)-4-(((1r,4r)-4-methoxycyclohexyl)amino)but-2-enamide] | A (A binding rate of 80% or more is rated “A”) | 31 nM | – | 51 nM
CO[C@H]1CC[C@H](NC/C=C/C(=O)Nc2c(F)cc(C(=O)c3ccc4c(-c5cc6ncn(C)c6cc5O)cccn34)cc2F)CC1 [Example 23, (E)-N-(2,6-difluoro-4-(8-(6-hydroxy-1-methyl-1H-benzo[d]imidazol-5-yl)indolizine-3-carbonyl)phenyl)-4-(((1r,4r)-4-methoxycyclohexyl)amino)but-2-enamide] | A (A binding rate of 80% or more is rated “A”) | 23 nM | 520 nM | –
CO[C@H]1CC[C@H](NC/C=C/C(=O)Nc2c(F)cc(C(=O)c3ccc4c(-c5c(C(F)(F)F)cc6c(nc(CF)n6C)c5Cl)cccn34)cc2F)CC1 [Example 68] | A (A binding rate of 80% or more is rated “A”) | 77 nM | 67 nM | –
COc1cc2c(nc(C)n2C)c(Cl)c1-c1cccn2c(C(=O)c3cc(F)c(NC(=O)/C=C/CNC(C)(C)C)c(F)c3)ccc12 (single isomer, unassigned) [Example 36-2, (E)-4-(tert-butylamino)-N-(4-(8-(4-chloro-6-methoxy-1,2-dimethyl-1H-benzo[d]imidazol-5-yl)indolizine-3-carbonyl)-2,6-difluorophenyl)but-2-enamide] | A (A binding rate of 80% or more is rated “A”) | 56 nM | – | 60 nM
Cc1cc2c(nc(CC(N)=O)n2C)c(Cl)c1-c1cccn2c(C(=O)c3cc(F)c(NC(=O)/C=C/CNC(C)(C)C)c(F)c3)ccc12 [Example 73, (E)-N-(4-(8-(2-(2-amino-2-oxoethyl)-4-chloro-1,6-dimethyl-1H-benzo[d]imidazol-5-yl)indolizine-3-carbonyl)-2,6-difluorophenyl)-4-(tert-butylamino)but-2-enamide] | A (A binding rate of 80% or more is rated “A”) | 73 nM | 300 nM | –
Cc1nc2c(-c3cc4nc(C)n(C)c4cc3C(F)(F)F)cccn2c1C(=O)c1cc(F)c(NC(=O)/C=C/CNC(C)(C)C)c(F)c1 [Example 52, (E)-4-(tert-butylamino)-N-(4-(8-(1,2-dimethyl-6-(trifluoromethyl)-1H-benzo[d]imidazol-5-yl)-2-methylimidazo[1,2-a]pyridine-3-carbonyl)-2,6-difluorophenyl)but-2-enamide] | A (A binding rate of 80% or more is rated “A”) | 75 nM | 190 nM | –
COc1cc2c(ncn2C)c(Cl)c1-c1cccn2c(C(=O)c3cc(F)c(NC(=O)/C=C/CN[C@H]4CC[C@H](OC)CC4)c(F)c3)ccc12 (single isomer, unassigned) [Example 41-1, (E)-N-(4-(8-(4-chloro-6-methoxy-1-methyl-1H-benzo[d]imidazol-5-yl)indolizine-3-carbonyl)-2,6-difluorophenyl)-4-(((1r,4r)-4-methoxycyclohexyl)amino)but-2-enamide] | A (A binding rate of 80% or more is rated “A”) | 52 nM | 32 nM | –
COc1cc2c(c(F)c1-c1cccn3c(C(=O)c4cc(F)c(NC(=O)/C=C/CNC5(C)CC5)c(F)c4)ccc13)c(=O)ncn2C [Example 114] | A (A binding rate of 80% or more is rated “A”) | 18.9 nM | 1070 nM | –
C=Cc1cc(C(=O)c2cc(F)c(NC(=O)/C=C/CN[C@H]3CC[C@H](OC)CC3)c(F)c2)n2cccc(-c3c(C)cc4c(nc(C)n4C)c3Cl)c12 [Example 88, (E)-N-(4-(8(4-chloro-1,2,6-trimethyl-1H-benzo[d]imidazol-5-yl)-1-vinylindolizine-3-carbonyl)-2,6-difluorophenyl)-4-(((1r,4r)-4-methoxycyclohexyl)amino)but-2-enamide] | A (A binding rate of 80% or more is rated “A”) | 26 nM | 130 nM | –
